Assay results from article PMC5645361, “Expression and function of Abcg4 in the mouse blood-brain barrier: role in restricting the brain entry of amyloid-β peptide” (Scientific Reports, 2017).
Where two headings read alike, the source gives them in different places. Blank lines part the entries; values can stand above or below the molecule they belong to.

Columns and labels:
[1] = mouse, in vivo
Description: Mice were anesthetized by intra-peritoneal injection of a mixture of ketamine and xylazine at 140:8 mg/kg. The right common carotid artery was ligated on the heart side and the right external carotid artery was ligated at the level of the bifurcation. A catheter was inserted into the right common carotid artery. The perfusion liquid was contained in a syringe placed in an infusion pump and connected to the catheter. Before the perfusion, the thorax of the animal was opened, the heart was removed and perfusion started immediately at flow of 2.5 mL/min. […] The brain uptake of tritiated tracers was also measured in the presence of unlabeled substrates [probucol 10 µM, desmosterol 20 µM orT4 10 µM], dissolved in their respective vehicles [DMSO ( < 0.5% in final perfusion fluid) or H2O/NaOH]. […] Labeled compounds were counted on a Tri-Carb® (PerkinElmer) counter with the appropriate dual (^14C/^3H) quenching curves and standards to measure disintegration per minute (dpm) in samples.
The brain uptake clearance (Clup, µL/g) is the ratio between the apparent tissue distribution volume (Vbrain, µL/g) of [^3H]Aβ1–40 or [^3H]desmosterol and the perfusion time (s). […] Xbrain is obtained by this equation: Xbrain=Xtot−(Vvasc×Cperf) where Xtot (dpm/g) is the total amount of tritiated tracer measured in the brain tissue sample (vascular and extravascular).

Abcg4 [2] = molecular target: T1, Abcg4 (Mus musculus, UniProt Q91WA9); experiment: In situ brain perfusion (ISBP): brain uptake clearance of tritiated tracers at the luminal BBB, WT and Abcg4-KO mice; conditions: WT mice, 60 s perfusion
T1 sequence (Q91WA9 whole entry, the tested form may be a part): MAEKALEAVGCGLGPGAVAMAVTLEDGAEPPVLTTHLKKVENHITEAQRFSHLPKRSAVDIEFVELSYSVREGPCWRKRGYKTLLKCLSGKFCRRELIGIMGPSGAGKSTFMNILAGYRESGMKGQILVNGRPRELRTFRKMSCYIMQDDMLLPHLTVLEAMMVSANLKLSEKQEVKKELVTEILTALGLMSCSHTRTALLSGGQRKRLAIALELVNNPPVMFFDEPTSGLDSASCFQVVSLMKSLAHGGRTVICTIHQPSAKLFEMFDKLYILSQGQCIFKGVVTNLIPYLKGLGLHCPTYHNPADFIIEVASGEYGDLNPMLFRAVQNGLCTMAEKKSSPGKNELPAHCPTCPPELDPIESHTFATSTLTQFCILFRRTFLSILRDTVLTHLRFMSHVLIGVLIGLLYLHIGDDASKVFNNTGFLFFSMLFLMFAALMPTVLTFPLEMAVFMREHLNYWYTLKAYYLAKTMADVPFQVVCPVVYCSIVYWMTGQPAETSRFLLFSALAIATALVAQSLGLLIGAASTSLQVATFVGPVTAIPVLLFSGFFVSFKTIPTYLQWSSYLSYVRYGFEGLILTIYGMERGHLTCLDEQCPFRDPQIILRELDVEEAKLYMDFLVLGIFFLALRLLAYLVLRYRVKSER
Description: (§1) The function of Abcg4 at the mouse BBB was evaluated by using the in situ brain perfusion (ISBP) technique. This method was developed to study drug transport processes occurring at the luminal side of the BCECs[40],[41] and can be used to measure transport parameters, including the brain volume of distribution and the brain uptake clearance (Clup) of a target molecule over very short periods (30–120 s). The resulting Clup integrates the effect of enhancing or limiting factors introduced by the transporters located at the luminal side of BCECs. This method allows for measurement of the initial brain uptake of molecules, which results from both the influx and the efflux mechanisms involved in their transport. One of the advantages of this technique is the ability to administer inhibitors, or to use transporter deficient mice, in order to modulate function at the luminal side of the BBB.
(§2) Mice were anesthetized by intra-peritoneal injection of a mixture of ketamine and xylazine at 140:8 mg/kg. The right common carotid artery was ligated on the heart side and the right external carotid artery was ligated at the level of the bifurcation. A catheter was inserted into the right common carotid artery. The perfusion liquid was contained in a syringe placed in an infusion pump and connected to the catheter. Before the perfusion, the thorax of the animal was opened, the heart was removed and perfusion started immediately at flow of 2.5 mL/min. The perfusion fluid was Krebs bicarbonate-buffered physiological saline (128 mM NaCl, 24 mM NaHCO3, 4.2 mM KCl, 2.4 NaH2PO4, 1.5 mM CaCl2, 0.9 mM MgCl2 and 9 mM D-glucose).The solution was gassed with 95% O2−5% CO2 to bring the pH to 7.40 and warmed to 37 °C in water bath. Each mouse was perfused for 60 s with [^3H]Aβ1–40 (0.2 µCi/mL) or [^3H]desmosterol (0.2 µCi/mL). [^14C]sucrose was used as a vascular marker of the physical integrity of the BBB and co-perfused with the tritiated substrate. The brain uptake of tritiated tracers was also measured in the presence of unlabeled substrates [probucol 10 µM, desmosterol 20 µM orT4 10 µM], dissolved in their respective vehicles [DMSO ( < 0.5% in final perfusion fluid) or H2O/NaOH]. The experiment was terminated by decapitating the mouse. The right cerebral hemisphere and aliquots of the perfusion fluid were sampled in tared vials, weighted, digested in 2 mL of Solvable® solubilizer (PerkinElmer, Courtaboeuf, France) at 50 °C and mixed with 9 mL of Ultima Gold XR® scintillation cocktail (PerkinElmer). Labeled compounds were counted on a Tri-Carb® (PerkinElmer) counter with the appropriate dual (^14C/^3H) quenching curves and standards to measure disintegration per minute (dpm) in samples.
(§3) The brain uptake clearance (Clup, µL/g) is the ratio between the apparent tissue distribution volume (Vbrain, µL/g) of [^3H]Aβ1–40 or [^3H]desmosterol and the perfusion time (s). The Vbrain was calculated from the amount of radioactivity in the right brain hemisphere using the following equation: Vbrain=Xbrain/Cperf where Xbrain (dpm/g) is the calculated amount of tritiated tracer in the right cerebral parenchyma and Cperf (dpm/µL) is the concentration of tritiated tracer in the perfusion fluid. Xbrain is obtained by this equation: Xbrain=Xtot−(Vvasc×Cperf) where Xtot (dpm/g) is the total amount of tritiated tracer measured in the brain tissue sample (vascular and extravascular).

Abcg4 [3] = experiment: as above
Description: as §1, §2, §3

Abcg4 [4] = conditions: mouse, in vivo
Description: as §1, §2, §3

Abcb1 = system: Abcb1; parameters: method as in PMID 11181832; conditions: read-out: Km of Aβ reported for Abcb1; cited from earlier work
Abcg4 [5] = molecular target: T1, Abcg4; parameters: Wild-type C57BL/6 and Abcg4-KO mice had free access to standard laboratory food and water; from tissue; host or cells: brain capillary endothelial cells of living C57BL/6 mice (in situ brain perfusion); conditions: HEK-Abcg4 transfected cells; cited from earlier work
Description: We had shown previously that a probucol- and T4-sensitive transporter, different from Abca1, Abcb1 and Abcg2, restricted the brain entry of [^3H]Aβ1-40 through the mouse BBB[18],[43].

Abcb1 and Abcg2 = conditions: brain efflux index (BEI) method; cited from earlier work
Abcg4 [6] = molecular target: T1, Abcg4; experiment: Abcg4-mediated Aβ transport/efflux in HEK-Abcg4 transfected cells; type: cell-based; conditions: data not shown
Description: Abcg4 monomers come together to form a homodimer that includes nearly identical binding clefts which are opposite one another on the dimer surface. The homology model is an approximation of the dimer structure frozen in time which fails to capture the dynamic nature of protein motions. In vivo it is likely that nucleotide binding changes the overall configuration of the dimer to allow for sterol binding on one side of the complex followed by translocation of sterol to the dimer core before being exported from the membrane. One consequence of this movement could be that only one sterol-binding site exists at a given time. Thus, sterol binding would alternate from one binding site to the other as sterols are translocated. This mechanism could explain why the homology model has a single sterol-binding site despite the presence of two nearly identical binding clefts. […] Abcg4 seems to have two Aβ binding sites which agrees with our previous data that percent efflux of Aβ was greater than cholesterol[18] and with our current data that desmosterol competes with Aβ efflux. Furthermore, we previously measured, in HEK-Abcg4 transfected cells, the velocity of Aβ transport by Abcg4 as a function of [^3H]Aβ1-40 concentrations. […]

[7] = Abcg4-KO mice, probucol 10 µM, 60 s perfusion, 8–9 mice
[8] = T4 10 µM in perfusion buffer, means of 5–8 mice
[9] = Abcg4-KO mice, T4 10 µM, 60 s perfusion, 5–8 mice

Molecule: CC(C)=CCC[C@@H](C)[C@H]1CC[C@H]2[C@@H]3CC=C4C[C@@H](O)CC[C@]4(C)[C@H]3CC[C@]12C [desmosterol]
- Increase of [3H]Aβ1-40 Clup in the presence vs absence of desmosterol (ER desmosterol/ctrl) (Abcg4 [2]; desmosterol 20 µM in perfusion buffer, means of 5–7 mice): 1.8 fold
- Effect of desmosterol on [3H]Aβ1-40 Clup (Abcg4 [3]; Abcg4-KO mice, desmosterol 20 µM, 60 s perfusion, 5–7 mice): no significant effect
- Time course of brain volume of distribution (Vbrain) as a function of perfusion time (Abcg4 [3]; WT C57BL/6 mice, right hemisphere, in situ brain perfusion, 3 animals per data point, r2 = 0.944): linear increase
- Brain uptake clearance (Clup) in Abcg4-KO mice compared with WT mice (Abcg4 [3]; in situ brain perfusion, 60 s, tracer 0.2 µCi/mL, absence of probucol, 8–9 mice, two-way ANOVA, Bonferroni): not significantly different

Molecule: Aβ1–40: amyloid-β peptide, 40 amino-acid form, used tritiated as transport tracer
- Brain uptake clearance (Clup) in Abcg4-KO mice compared with WT mice (Abcg4 [4]): not significantly different
- Km (Abcb1): 12.5 µM

Molecule: CNC(=O)c1cc(Oc2ccc(NC(=O)Nc3ccc(Cl)c(C(F)(F)F)c3)cc2)ccn1 [sorafenib]
- Brain clearance in Mdr1a/b−/− mice compared with WT mice (Abcb1 and Abcg2): the same
- Decrease of brain clearance in Abcb1/Abcg2-deficient mice (Abcb1 and Abcg2): 2.5 fold
- Decrease of brain clearance in Abcg2-deficient mice (Abcb1 and Abcg2): 2 fold

The next lines start with results.

- Brain vascular volume (Vvasc), distribution volume of [14C]sucrose [1]: under 20 µL/g
Molecule: OC[C@H]1O[C@@](CO)(O[C@H]2O[C@H](CO)[C@@H](O)[C@H](O)[C@H]2O)[C@@H](O)[C@@H]1O [sucrose]

- Increase of [3H]desmosterol Clup in the presence vs absence of probucol (ER probucol/ctrl) (Abcg4 [2]; probucol 10 µM in perfusion fluid, [3H]desmosterol 0.2 µCi/mL, Krebs bicarbonate pH 7.40, 37 °C, means of 8–9 mice): 1.8 fold
- Increase of [3H]Aβ1–40 Clup in the presence vs absence of probucol (ER probucol/ctrl) (Abcg4 [2]; probucol 10 µM, [3H]Aβ1–40 0.2 µCi/mL, pH 7.40, 37 °C, means of 8–9 mice): 2.1 fold
Molecule: CC(C)(Sc1cc(C(C)(C)C)c(O)c(C(C)(C)C)c1)Sc1cc(C(C)(C)C)c(O)c(C(C)(C)C)c1 [probucol]
- Effect of probucol on [3H]Aβ1–40 Clup (Abcg4 [3]; [7]): this effect was lost
- Effect of probucol on [3H]desmosterol Clup (Abcg4 [3]; [7]): this effect was lost
- Inhibition of Abcg4-mediated Aβ efflux (Abcg4 [5]): 2 fold

- Inhibition of Abcg4-mediated Aβ efflux (Abcg4 [6]): 5.8 fold
- Increase of [3H]Aβ1–40 Clup in the presence vs absence of T4 (ER T4/ctrl) (Abcg4 [2]; [8]): 2 fold
- Increase of [3H]desmosterol Clup in the presence vs absence of T4 (ER T4/ctrl) (Abcg4 [2]; [8]): 1.8 fold
Molecule: N[C@@H](Cc1cc(I)c(Oc2cc(I)c(O)c(I)c2)c(I)c1)C(=O)O [T4, L-thyroxine]
- Effect of T4 on [3H]Aβ1–40 Clup (Abcg4 [3]; [9]): this effect was lost
- Effect of T4 on [3H]desmosterol Clup (Abcg4 [3]; [9]): this effect was lost
